The nature of one data set: in vitro. Particulars: cells exposed to zidovudine; 22 assays; 90.9% for cells not exposed; read-out: cell viability. It counts as cell-based. An excerpt:
(§1) A total of 22 clinical HIV-1 isolates were studied, including 8 isolates from four seropositive asymptomatic individuals, 6 isolates from three patients with the AIDS-related complex, and 8 isolates from four patients with AIDS (two pairs of zidovudine-resistant and zidovudine-susceptible reference isolates were also included in this group). Erice et al., Antimicrob. Ag. Chemother., 37, 835 (1993). Fifteen isolates were from untreated individuals, and seven isolates were obtained after 24 to 104 weeks of treatment with zidovudine, alone or alternating with zalcitabine. […] The mean αCD4-PAP IC50 s in this group were 11×10^-3 nM (range, 2.5×10^-3 to 25×10^-3 nM) for isolates from zidovudine-untreated individuals and 9×10^-3 nM for the isolate obtained after 48 weeks of zidovudine therapy. […] The mean αCD4-PAP values in this group were 137×10^-3 nM (range, 39×10^-3 to 212×10^-3 nM) for isolates from untreated individuals and 19×10^-3 nM (range, 2×10^-3 to 42×10^-3 nM) for isolates from treated patients. […] The mean αCD4-PAP values were 43×10^-3 nM for the 17 isolates susceptible to zidovudine and 19×10^-3 nM for the 5 isolates that were resistant to zidovudine. All of the HIV-1 isolates studied had IC50 s greater than 0.5 nM for unconjugated PAP, the αCD19-PAP immunoconjugate, and monoclonal antibody αCD4. […]

Data set [1] concerns clinical HIV-1 strains (AT-101, AT-328, AT-332). It counts as in vivo, Hu-PBL-SCID mice.
Text: Hu-PBL-SCID mice were generated by reconstituting SCID mice by intraperitoneal injection of 10×10^6 peripheral blood mononuclear cells from a single EBV-seronegative volunteer donor. Two weeks after inoculation of cells, mice were challenged by intraperitoneal injection of 1.47.-7×10^4 median tissue culture infectious doses (TCID50) of cell free virus. Three different clinical HIV-1 strains (AT-101, AT-328, AT-332) were used. […] SCID mice were infected with HIV-1 isolates in a Biosafety Level 3 containment facility and all manipulations were performed in a biosafety cabinet. Non-toxic doses of anti-CD4-PAP (20% -50% of LD10) were administered intraperitoneally by injecting half of the total dose as a bolus and delivering the remainder i.p. over 2 weeks using Alzet micro-osmotic pumps. […] Two weeks after infection with HIV-1, mice were electively killed and fresh peritoneal lavage cells as well as spleen cells were isolated, cocultured with phytohemagglutinin(PHA)-stimulated human peripheral blood mononuclear cells from an HIV-1 antibody negative donor, and culture supernatants were tested every 3-4 days for a maximum of 28 days for the presence of HIV-1 antigen with a commercially available enzyme immunoassay (Abbott Laboratories, North Chicago, Ill.) that detects primarily the core p24 antigen of HIV-1, as previously described by Goudsmit et al. in J. Infectious Diseases, 155, 558 (1987). In addition to this culture method, we also isolated the DNA from the peritoneal lavage cells as well as splenocytes for detection of HIV-1 DNA by PCR amplification of a 115 b.p. sequence in the gag region of the HIV-1 genome using two 29-base oligonucleotide primers, SK38 and SK39, that flank the region to be amplified. […] DNA samples were also examined for the presence of human DNA by PCR amplification of a 110-bp fragment from the first exon of the human β-globin gene using two 20-base oligonucleotide primers, PCO3 and PCO4, that flank the region to be amplified, as previously described in detail by Chelstrom et al. Blood, 84, 20 (1994). […]
Another data set deals with clinical HIV-1 isolates. The data set is described as follows: In vitro susceptibility of clinical HIV-1 isolates to zidovudine (IC50). It counts as cell-based.
Text: as §1, with “αCD4. In 18 αCD4-PAP experiments, cell viability ranged from 97.5% (for cells not exposed to the immunoconjugate)to 87.2% (for cells exposed to 5 nM αCD4-PAP). Cell viabilities in 22 zidovudine susceptible assays ranged from 90.9% (cells not exposed to zidovudine) to 90.75% (cells exposed to […] zidovudine).” for “αCD4.”
The in vitro susceptibility of clinical HIV-1 isolates to the PAP, PAP mutants, and anti-CD4 PAP immunoconjugates will be measured and compared using an RT inhibition assay, as described by Schwartz et al., cited supra. In brief, 5×10^6 PHA-stimulated seronegative donor peripheral blood mononuclear cells will be infected with HIV-1 by incubation in 1 mL of a stock virus preparation for 3 h at 37° C./5% CO2. After infection, cells will be transferred to 96-well tissue culture plates (40 μL/well in triplicate wells) containing different concentrations of PAP or αCD4 PAP diluted in RPMI 1640 supplemented with 20% fetal calf serum, 5% interleukin 2 (Cellular Products), 160 U/mL penicillin, and 160 μg/mL streptomycin. αCD4 PAP treatment will continue for 5 days to mimic the FDA-approved clinical protocol of the ongoing phase II PAP immunoconjugate trials for treatment of B-lineage lymphoid malignancies (BB-IND #3864). At the end of the incubation period, culture supernatants will be removed and assayed for RT activity using the method of Schwartz and colleagues. Schwartz et al., cited supra. IC50 values (concentration of drug needed to reduce RT activity by 50%) will be calculated from the RT activities of untreated versus treated samples using the SAS Regression Analysis Program (SAS Institute, Cary, N.C.). ZDV resistance will be defined as an ZDV-IC50value of greater than 1 μM. Standard statistical methods will be used including Student's t-tests to compare the αCD4 PAP sensitivity of ZDV-resistant and ZDV-sensitive HIV-1 isolates. All computations will be performed using an updated statistics program for the Macintosh (Statworks Statistics Program, Cricket Software, Philadelphia, Pa.).

Setting [2] is: ZDV in the water at 1 mg/mL, of the remaining 7 of 10 mice.

Where two headings read alike, the source gives them in different places.

A word on the viability: it is the share of living cells, or the viability signal relative to a control. As for `Cc1cn([C@H]2C[C@H](N=[N+]=[N-])[C@@H](CO)O2)c(=O)[nH]c1=O` [zidovudine, 3'-azido-3'-deoxythymidine], the viability in “in vitro” stood at 90.8%. For the same compound, the HIV-1 negative mice in data set [1] (ZDV in the water at 1 mg/mL (average 200 mg/kg/day), two weeks after infection, culture and PCR) is given as 3 of 10. Also, the “mice culture-negative but PCR-positive” value in data set [1] (setting [2]) is reported as 3. Moreover, the “mice culture-positive and PCR positive” value in data set [1] (setting [2]) is given as 4. Further, the IC50 with clinical HIV-1 isolates (Human immunodeficiency virus 1, one resistant isolate, IC50 could not be calculated) was greater than 4 µM; in the data set on clinical HIV-1 isolates (Human immunodeficiency virus 1, read-out: mean IC50, overall, 5 isolates resistant to zidovudine), 3.72 µM; in the data set with clinical HIV-1 isolates (Human immunodeficiency virus 1, read-out: mean IC50, overall, 17 isolates susceptible to zidovudine), 0.117 µM; in the data set on clinical HIV-1 isolates (Human immunodeficiency virus 1, read-out: mean zidovudine IC50, AIDS-related complex, four zidovudine susceptible isolates) it was 0.106 µM; in the data set on clinical HIV-1 isolates (Human immunodeficiency virus 1, read-out: mean zidovudine IC50, isolates from seropositive asymptomatic, zidovudine-untreated patients), 0.15 µM; in the data set with clinical HIV-1 isolates (Human immunodeficiency virus 1, read-out: mean zidovudine IC50, patients with AIDS, five zidovudine susceptible strains), 0.105 µM. Moreover, the IC50 with clinical HIV-1 isolates (Human immunodeficiency virus 1, read-out: mean zidovudine IC50, strains from zidovudine-treated patients (7 isolates, 24 to 104 weeks of treatment)) was 2.5 µM; in the data set on clinical HIV-1 isolates (Human immunodeficiency virus 1, read-out: mean zidovudine IC50, strains from zidovudine-untreated individuals (15 isolates)), 0.126 µM; in the data set on clinical HIV-1 isolates (Human immunodeficiency virus 1, read-out: zidovudine IC50, one isolate from a seropositive asymptomatic individual after 48 weeks of zidovudine therapy), 0.014 µM; with clinical HIV-1 isolates (Human immunodeficiency virus 1, read-out: zidovudine IC50 range, AIDS-related complex, four zidovudine susceptible isolates) it was 0.024 to 0.15 µM; with clinical HIV-1 isolates (Human immunodeficiency virus 1, read-out: zidovudine IC50 range, isolates from seropositive asymptomatic, zidovudine-untreated patients), 0.001 to 0.607 µM; in the data set with clinical HIV-1 isolates (Human immunodeficiency virus 1, read-out: zidovudine IC50 range, patients with AIDS, five zidovudine susceptible strains) it was 0.044 to 0.166 µM. Also, the IC50 in the data set with clinical HIV-1 isolates (Human immunodeficiency virus 1, read-out: zidovudine IC50 range, strains from zidovudine-treated patients (7 isolates)) fell in the range of 0.014 to 6.5 µM; with clinical HIV-1 isolates (Human immunodeficiency virus 1, read-out: zidovudine IC50 range, strains from zidovudine-untreated individuals (15 isolates)), 0.001 to 0.607 µM; in the data set on clinical HIV-1 isolates (Human immunodeficiency virus 1, read-out: zidovudine IC50s, AIDS-related complex, two resistant isolates obtained after 52 weeks of therapy), 1.71 to 2.14 µM. The susceptibility to zidovudine result in the data set with clinical HIV-1 isolates (patients with AIDS, three isolates after 24 to 104 weeks of zidovudine, alone or alternating with zalcitabine) is listed as “highly resistant to zidovudine”.

Source of the values: patent publication US6146628A, “Biotherapeutic agents comprising recombinant PAP and PAP mutants” (priority 1995, dated 2000).
